Publication PMC7828231, “Delphinidin Increases the Sensitivity of Ovarian Cancer Cell Lines to 3-bromopyruvate” (International Journal of Molecular Sciences, 2021)

Assays:
Type in all cases: cell-based, human
MRC-5 fibroblasts [1] = test: GSH content (OPA); conditions: 25-µM D, 40 µM 3-BP, 24 h
Procedure: (§1) The content of reduced glutathione was assayed with OPA [63]. Briefly, the cells were seeded in wells of a transparent 96-well plate at a density of 7.5 × 10^3/well (MRC-5) or 1 × 10^4/well (cancer cells) and allowed to attach at 37 °C for 24 h. After 24-h treatment with the tested compounds, the medium was removed, the cells were washed with PBS (150 µL per well) and then added with 60 µL/well of cold redox quenching buffer (RQB) containing 20-mM HCl, 5% TCA, 5-mM DTPA and 10-mM L-ascorbic acid. The plate was shaken for 5 minutes and centrifuged for 5 minutes at 4000 rpm. Next, the supernatant was transferred into two 96-well black plates (“+NEM” and “–NEM”; 25 µL/well). Within the “+NEM” plate, 4 µL/well of freshly prepared 7.5-mM NEM in cold RQB buffer was added. Then, 1-M phosphate buffer (pH 7.0) was added into both plates (40 µL/well), and the plates were shaken for 5 min at 700 rpm. Finally, 160 µL/well of cold 0.1-M phosphate buffer (pH 6.8) and 25 µL/well of freshly prepared 0.5% OPA in methanol were added into both plates. Both plates were incubated for 30 minutes at room temperature with constant shaking. Fluorescence was then measured at 355/430 nm. The protein contents in the cell lysates were determined according to Lowry et al.. The concentration of reduced glutathione was determined by subtracting […] and calculated with respect to the protein content.

PEO1 cells [2] = test: GSH content (OPA); conditions: 25-µM D, 20 µM 3-BP, 24 h
Procedure: as §1

SKOV3 cells [3] = test: GSH content (OPA); conditions: 25-µM D, 40 µM 3-BP, 24 h
Procedure: as §1

MRC-5 fibroblasts [4] = test: Level of reactive oxygen species (DHE, DCFDA); conditions: 25-µM D, 40 µM 3-BP, 24 h
Procedure: (§2) The level of ROS in the MRC-5, SKOV3 and PEO1 cells after 24-h exposure to delphinidin chloride and 3-BP was assayed with 2′,7′-dichlorofluorescein diacetate (DCFDA) and dihydroethidium (DHE). Briefly, cells were seeded in a black 96-well flat clear-bottom plate at a density of 7.5 × 10^3/well for MRC-5 fibroblasts and 1 × 10^4 /well for cancer cells and allowed to attach at 37 °C for 24 h. After 24-h incubation, the medium was removed and replaced with a medium containing the examined substances at concentrations given previously. After incubation, the medium was removed and replaced by a 10-µM fluorescent probe (DHE or DCFDA) (100 µL/well). Stock solutions of the probes were prepared in DMSO, and working solutions were prepared in PBS. Fluorescence was measured at 490/529 nm (DCFDA) and 475/579 nm (DHE) for 2 h at 37 °C in 1-min intervals.

PEO1 cells [5] = test: Level of reactive oxygen species (DHE, DCFDA); conditions: 25-µM D, 20 µM 3-BP, 24 h
Procedure: as §2

SKOV3 cells [6] = test: Level of reactive oxygen species (DHE, DCFDA); conditions: 25-µM D, 40 µM 3-BP, 24 h
Procedure: as §2

PEO1 cells [7] = test: Atto-488-phalloidin and Mitotracker labeling (confocal); conditions: 24 h
Procedure: (§3) Cells were seeded on an 8-well chamber slide (Lab-Tek™ II Chamber Slide™ System cat. no. 154534, Thermo Scientific, Waltham, MA, USA) at a density of 2.5 × 10^4 cells/chamber and allowed to attach at 37 °C. Subsequently, PEO1 and SKOV3 cells were treated with 25-µM D, 20-µM or 40-µM 3-BP (depending on the cell line) or both substances together for 24 h. Following the treatment, the medium was removed and replaced with 200-nM solution of Mitotracker Deep Red FM (i) (cat. no. M22426, Thermo Scientific, Waltham, MA, USA) in PBS and incubated for 30 min; in a CO2 incubator, the cells were washed with PBS (300 μL/well) and fixed with 200-μL/well 3.7% formaldehyde for 10 min. Then, the cells were washed with PBS (200 μL/well), permeabilized with 0.1% Triton X-100 solution (200 μL/well) for 10 min and washed with PBS (700 μL/well).
(§4) Following the treatment, the medium was removed and replaced with 150 μL/well of phalloidin working solution (ii) (prepared according to the manufacturer’s protocols) and incubated for 60 min.
(§5) After staining i or ii, the fixed cells were washed again, 600-nM solution of DAPI in PBS was added (200 µL/well), the cells were incubated at room temperature for 60 minutes and their micrographs were taken using a Zeiss LSM 710 inverted confocal microscope (Oberkochen, Germany). The ratio of fluorescence intensity of the mitochondria and cytoskeleton (expressed as a mean gray value) was calculated using ImageJ software. The corrected total cell fluorescence (CTFT) per cell was calculated according to https://theolb.readthedocs.io/en/latest/imaging/measuring-cell-fluorescence-using-imagej.html.

SKOV3 cells [8] = test: as above; conditions: 25-µM D, 40-µM 3-BP, 24 h
Procedure: as §3, §4, §5

SKOV3 cells [9] = test: Cell migration (scraped area closure)
Procedure: Ovarian cancer cells and human normal fibroblasts were seeded on a 24-well plate at a density of 7 × 10^4/well (PEO1), 6.5 × 10^4/well (SKOV3) and 6 × 10^4/well (MRC-5) in 700 µL of appropriate cell medium and cultured at 37 °C to reach 90–95% confluence. Then, the cells in the middle of the wells were scraped off using sterile pipette tips (100 µL), cell debris was removed by washing with medium containing 2% FBS and the tested compounds diluted with medium containing 2% FBS were added. Images of the scraped area were collected after 12 h and 24 h at 10× objective magnification using an Olympus CKX53 microscope with a U-TV0. 5XC-3 digital microscope camera. The obtained results were analyzed using ImageJ software. The percentage of scraped area closure was estimated as the ratio of area measured after 12- or 24-h incubation and the area at the beginning of the experiment.

PEO1 cells [10] = test: Apoptosis and necrosis assay (RealTime-Glo Annexin V); conditions: after 24 h
Procedure: The levels of apoptosis and necrosis were assayed using the RealTime-Glo™ Annexin V Apoptosis and Necrosis Assay. Cells were seeded into a white 96-well plate with optical bottom, cultured and treated adequately, as stated above. After 24 h, 100 μL of the freshly prepared reagent was added to each well according to the manufacturer’s protocols. The fluorescence and luminescence were measured according to the protocols.

SMILES	GSH level (MRC-5 fibroblasts [1])	GSH level (PEO1 cells [2])	GSH level (SKOV3 cells [3])	level of DCFDA-reactive ROS (MRC-5 fibroblasts [4])	level of DHE-detectable ROS (MRC-5 fibroblasts [4])	level of DCFDA-reactive ROS (PEO1 cells [5])	level of DHE-detectable ROS (PEO1 cells [5])	level of DCFDA-reactive ROS (SKOV3 cells [6])	decrease in the intensity of staining with Atto-488-phalloidin with respect to the control (PEO1 cells [7]; 25-µM D, 20-µM 3-BP) [%]	increase in the intensity of staining with Mitotracker Red with respect to the control (PEO1 cells [7]; 25-µM D)	decrease in the intensity of staining with Atto-488-phalloidin with respect to the control (SKOV3 cells [8])	decrease in the intensity of staining with Mitotracker Red with respect to the control (SKOV3 cells [8])	cell migration (SKOV3 cells [9])	induction of necrosis (PEO1 cells [10])	level of DHE-detectable ROS (SKOV3 cells [6])	increase in the intensity of staining with Atto-488-phalloidin with respect to the control (PEO1 cells [7]; 20-µM 3-BP) [%]	decrease in the intensity of staining with Mitotracker Red with respect to the control (PEO1 cells [7]; 25-µM D, 20-µM 3-BP)
Oc1cc(O)c2cc(O)c(-c3cc(O)c(O)c(O)c3)[o+]c2c1 [Delphinidin chloride, 3,3′,4′,5,5′,7-hexahydroxyflavylium]	neither 3-BP or D alone modified	did not affect	without effect	not affected	decreased	increased	increased	not affected	~17	about 7%	~67%	~94%	decreased	considerable induction of necrosis			
O=C(O)C(=O)CBr [3-BP, 3-bromopyruvic acid]	neither 3-BP or D alone modified	decreased	increased	not affected	decreased	increased	decreased	not affected			about 33%	about 39%	decreased	considerable induction of necrosis	not affecting	~51	about 7%
